Experiment [1] concerns the target Heat shock protein HSP 90-alpha (Homo sapiens, UniProt P07900). The experiment is classed as functional, organism-based.
Experiment [2] concerns the target Cyclin-dependent kinase 5/CDK5 activator 1 (Homo sapiens, UniProt Q00535). Description: blockade of human CDK5 activity – biochemical, cherry-picked samples, set 2, dose response (AID 504545).
The target in experiment [3] is Mothers against decapentaplegic homolog 3 (Homo sapiens, UniProt P84022). Description: blockers of Smad3 complex formation in lysate – cell lysate, secondary confirmation, chemiluminescent ELISA, HEK293 lysate, dose response (AID 1058). The experiment is classed as functional.
Another experiment is described as follows: cells. The class given is functional.
The nature of experiment [4]: M. tuberculosis H37Rv growth inhibitors, H37Rv strain (AID 1626). The experiment is classed as functional.
A further experiment has as its target T1, Estrogen receptor (Homo sapiens, UniProt P03372).
T1 sequence (P03372 whole entry): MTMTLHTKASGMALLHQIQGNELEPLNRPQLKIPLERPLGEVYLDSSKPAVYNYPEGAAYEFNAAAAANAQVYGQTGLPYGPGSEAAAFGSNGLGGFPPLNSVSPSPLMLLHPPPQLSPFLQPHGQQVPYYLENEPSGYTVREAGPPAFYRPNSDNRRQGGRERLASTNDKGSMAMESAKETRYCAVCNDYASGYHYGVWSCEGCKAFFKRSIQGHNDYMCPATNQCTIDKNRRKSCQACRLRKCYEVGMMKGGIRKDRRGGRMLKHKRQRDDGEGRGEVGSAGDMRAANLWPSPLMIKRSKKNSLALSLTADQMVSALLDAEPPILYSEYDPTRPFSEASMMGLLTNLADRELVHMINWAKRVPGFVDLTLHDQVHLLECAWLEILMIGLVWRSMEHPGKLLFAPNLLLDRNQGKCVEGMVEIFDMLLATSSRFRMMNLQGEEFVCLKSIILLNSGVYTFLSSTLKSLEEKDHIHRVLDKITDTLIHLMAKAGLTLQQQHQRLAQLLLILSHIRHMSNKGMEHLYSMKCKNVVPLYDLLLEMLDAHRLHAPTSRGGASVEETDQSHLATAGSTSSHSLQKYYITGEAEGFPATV
The experiment can be described thus: ERα coactivator recruitment enhancers – biochemical, TR-FRET, ERα LBD, dose response (AID 737).

The next experiment addresses DNA topoisomerase (Yersinia pestis, UniProt A0A2S9PM60). The experiment can be described thus: Yersinia topoisomerase I cleavage product accumulation – biochemical, cherry-pick, dose response (AID 588525).
Experiment [5] has as its target T2, Carboxy-terminal domain RNA polymerase II polypeptide A small phosphatase 1 (Homo sapiens, UniProt Q9GZU7).
T2 sequence (Q9GZU7 whole entry): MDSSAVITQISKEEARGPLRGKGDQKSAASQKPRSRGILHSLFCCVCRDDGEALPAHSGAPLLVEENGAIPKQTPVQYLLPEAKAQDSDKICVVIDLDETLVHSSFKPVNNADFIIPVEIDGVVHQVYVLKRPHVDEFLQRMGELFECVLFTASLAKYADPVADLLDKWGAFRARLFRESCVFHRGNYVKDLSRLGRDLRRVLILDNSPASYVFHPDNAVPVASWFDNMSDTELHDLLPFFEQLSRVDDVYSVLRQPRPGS
The experiment can be described thus: CTDSP1 inhibitors, concentration-response, biochemical, absorbance readout, ultra-high-throughput screen actives (AID 540297). The experiment is classed as functional.

A short description of experiment [6]: IC50 of Artemis nuclease activity blockers – biochemical, fluorescence intensity, dose response (AID 720701).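 Note: Artemis endonuclease enzyme.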 The class given is functional.
Experiment [7] deals with Induced myeloid leukemia cell differentiation protein Mcl-1 (Homo sapiens, UniProt Q07820). The experiment is classed as functional.
For the next experiment, the target named is NS3 (Hepatitis C virus, UniProt A3EZJ3). The experiment can be described thus: PubChem AID 2173. Also noted: species or system Hepacivirus hominis.
Experiment [8] can be described thus: antiviral protection against BTV-induced cell death – arbovirus, BSR cells, confirmation (AID 1250).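 Note: protection from viral cytopathic effect measured as cell viability by ATP luminescence.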 The experiment is classed as functional.

The structures appear in SMILES notation. Active and inactive are the calls of the source. Some results are limits rather than exact numbers.

Chain of Cyclin-dependent kinase 5/CDK5 activator 1 (Q00535 whole entry): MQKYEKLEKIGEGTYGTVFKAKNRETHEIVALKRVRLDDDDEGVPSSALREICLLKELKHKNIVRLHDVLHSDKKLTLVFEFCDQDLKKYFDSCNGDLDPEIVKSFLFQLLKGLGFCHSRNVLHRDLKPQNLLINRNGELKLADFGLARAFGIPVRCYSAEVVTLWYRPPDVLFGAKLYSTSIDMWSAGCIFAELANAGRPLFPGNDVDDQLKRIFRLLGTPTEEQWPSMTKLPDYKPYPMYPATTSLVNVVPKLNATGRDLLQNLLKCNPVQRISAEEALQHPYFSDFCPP
Chain of Cyclin-dependent kinase 5/CDK5 activator 1 (Q15078 whole entry, further chain): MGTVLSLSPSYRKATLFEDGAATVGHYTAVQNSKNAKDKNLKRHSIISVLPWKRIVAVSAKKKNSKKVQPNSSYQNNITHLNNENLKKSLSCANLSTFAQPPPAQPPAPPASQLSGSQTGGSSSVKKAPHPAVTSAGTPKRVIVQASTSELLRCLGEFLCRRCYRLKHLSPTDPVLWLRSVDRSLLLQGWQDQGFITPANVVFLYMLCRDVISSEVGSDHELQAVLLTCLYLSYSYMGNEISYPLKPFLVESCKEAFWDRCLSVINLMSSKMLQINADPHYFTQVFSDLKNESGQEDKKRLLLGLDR
Chain of Induced myeloid leukemia cell differentiation protein Mcl-1 (Q07820 whole entry): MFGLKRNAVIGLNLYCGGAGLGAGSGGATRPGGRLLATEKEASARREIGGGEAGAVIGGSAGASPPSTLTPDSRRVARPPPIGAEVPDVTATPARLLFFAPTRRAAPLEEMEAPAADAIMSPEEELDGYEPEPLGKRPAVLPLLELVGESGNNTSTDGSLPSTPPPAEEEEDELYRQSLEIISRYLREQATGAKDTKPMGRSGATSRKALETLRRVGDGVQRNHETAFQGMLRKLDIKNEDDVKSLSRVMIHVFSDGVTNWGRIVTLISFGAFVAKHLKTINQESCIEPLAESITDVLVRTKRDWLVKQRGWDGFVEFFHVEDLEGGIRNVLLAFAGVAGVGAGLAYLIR
Chain of NS3 (A3EZJ3 whole entry): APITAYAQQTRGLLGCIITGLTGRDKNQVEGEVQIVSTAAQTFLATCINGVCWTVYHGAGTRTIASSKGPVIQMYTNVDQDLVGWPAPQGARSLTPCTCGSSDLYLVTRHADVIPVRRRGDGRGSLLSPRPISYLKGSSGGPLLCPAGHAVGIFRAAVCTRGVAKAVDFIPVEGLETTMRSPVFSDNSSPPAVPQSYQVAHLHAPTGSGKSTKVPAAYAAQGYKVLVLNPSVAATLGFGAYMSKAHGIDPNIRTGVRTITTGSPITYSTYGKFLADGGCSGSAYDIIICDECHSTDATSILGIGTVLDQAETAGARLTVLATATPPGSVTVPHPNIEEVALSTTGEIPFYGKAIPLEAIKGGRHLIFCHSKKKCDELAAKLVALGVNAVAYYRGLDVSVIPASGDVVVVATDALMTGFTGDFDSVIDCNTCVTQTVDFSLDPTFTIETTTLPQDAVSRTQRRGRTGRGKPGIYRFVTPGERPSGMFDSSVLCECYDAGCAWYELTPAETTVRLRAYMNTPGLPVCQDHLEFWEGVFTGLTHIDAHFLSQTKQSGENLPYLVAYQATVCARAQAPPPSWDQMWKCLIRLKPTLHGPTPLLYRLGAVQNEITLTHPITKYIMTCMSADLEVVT
Chain of DNA topoisomerase (A0A2S9PM60 whole entry, the tested form may be a part): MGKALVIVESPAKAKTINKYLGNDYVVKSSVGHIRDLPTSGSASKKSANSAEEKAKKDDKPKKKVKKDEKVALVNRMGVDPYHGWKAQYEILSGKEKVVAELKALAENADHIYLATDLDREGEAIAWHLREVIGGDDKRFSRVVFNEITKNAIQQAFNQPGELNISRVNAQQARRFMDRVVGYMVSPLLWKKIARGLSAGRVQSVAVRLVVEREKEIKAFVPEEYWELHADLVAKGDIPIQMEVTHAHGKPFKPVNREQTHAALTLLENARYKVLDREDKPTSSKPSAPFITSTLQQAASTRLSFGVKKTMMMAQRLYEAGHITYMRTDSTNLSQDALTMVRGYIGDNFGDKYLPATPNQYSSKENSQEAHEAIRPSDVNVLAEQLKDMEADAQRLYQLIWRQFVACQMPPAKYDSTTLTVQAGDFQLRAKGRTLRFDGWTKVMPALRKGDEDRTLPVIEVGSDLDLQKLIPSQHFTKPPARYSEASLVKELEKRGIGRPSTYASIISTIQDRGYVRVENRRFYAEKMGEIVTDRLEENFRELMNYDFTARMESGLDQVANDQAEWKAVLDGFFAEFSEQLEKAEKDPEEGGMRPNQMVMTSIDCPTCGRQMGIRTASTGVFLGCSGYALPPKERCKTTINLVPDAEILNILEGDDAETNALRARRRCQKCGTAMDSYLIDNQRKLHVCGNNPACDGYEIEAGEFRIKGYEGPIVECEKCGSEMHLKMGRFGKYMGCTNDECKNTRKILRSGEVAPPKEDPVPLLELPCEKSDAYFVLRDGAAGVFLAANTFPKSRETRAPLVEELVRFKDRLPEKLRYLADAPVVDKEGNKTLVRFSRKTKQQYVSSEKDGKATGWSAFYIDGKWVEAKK
Chain of Mothers against decapentaplegic homolog 3 (P84022 whole entry): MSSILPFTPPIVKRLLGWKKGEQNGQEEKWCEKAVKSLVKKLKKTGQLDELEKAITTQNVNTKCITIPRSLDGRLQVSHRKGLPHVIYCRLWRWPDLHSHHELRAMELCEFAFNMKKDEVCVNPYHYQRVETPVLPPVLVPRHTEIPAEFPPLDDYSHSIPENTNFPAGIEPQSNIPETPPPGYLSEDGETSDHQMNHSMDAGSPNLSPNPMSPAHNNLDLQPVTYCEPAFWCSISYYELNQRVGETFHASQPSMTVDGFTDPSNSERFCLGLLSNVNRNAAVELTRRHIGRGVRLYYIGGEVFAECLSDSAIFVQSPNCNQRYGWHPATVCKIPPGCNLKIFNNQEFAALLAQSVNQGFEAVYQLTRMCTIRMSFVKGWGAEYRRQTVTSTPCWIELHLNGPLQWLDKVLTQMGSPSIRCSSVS

A word on the AC50: it is the midpoint of the concentration-response curve, whichever way the signal moves. For the compound `O=[N+]([O-])c1ccc2c(c1)-c1ccccc1C2=NO`, the AC50 in experiment [1] is 3.93 µM (active); in experiment [2], 8.4 µM (active).
One may read the IC50 as the midpoint of a concentration-inhibition curve. Take `COc1ccc(C(c2cc3c(cc2O)OCO3)N2CCCCC2)cc1OC` (configuration not stated): in experiment [3], the IC50 is recorded as > 40 µM (not active).
Turning to `O=C(Nc1nc2ccccc2[nH]1)c1cccc([N+](=O)[O-])c1`, the values for the IC50 (in the experiment “cells”; in [4]) were 4.91 µM (active) and > 100 µM (active), respectively.
What is called EC50 is the concentration needed to bring the measured effect to its halfway point. `CCc1ccc(Nc2nc(N)nc(CSc3nnnn3-c3ccccc3)n2)cc1`: the concentration for a half-maximal effect (EC50) at Estrogen receptor was 4.76 µM (active). Besides, the concentration at half-maximal activity (AC50) on DNA topoisomerase was 6.16 µM (active).
Take `O=C(Nc1nc(-c2ccco2)c(-c2ccco2)s1)C1CC(=O)N(c2ccc3c(c2)OCCO3)C1` (configuration not stated): the concentration for half-maximal inhibition (IC50) is 3.1 µM (active) in experiment [5], > 20 µM (inactive) in experiment [6], 4.4 µM (active) in experiment [7] and 26.3 µM (not active) at NS3.
`CC(=O)/C(=N/Nc1cccc(Cl)c1)Sc1nnc(C(O)c2ccccc2)n1-c1ccccc1` (configuration not stated): in [8], the 50% inhibitory concentration (IC50) is 37.7 µM (active).

The values are drawn from ChEMBL document CHEMBL1201862, “PubChem BioAssay data set” (2004).
